According to PubChem BioAssay (NCI):
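Growth conditions: 96-well plates. Treatment: test compound, 48 hours, 5 concentrations. Analysis: linear interpolation between bracketing concentrations; unreached endpoints set to highest concentration. Here, GI50 denotes the concentration required for 50% inhibition of growth. Definition used: TGI = concentration required for complete inhibition of growth.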

Key:
Test in all cases: DTP human tumour cell line panel, 48 h
HL-60(TB) leukemia = system: HL-60(TB) leukemia
SK-MEL-5 melanoma = system: SK-MEL-5 melanoma
A549 NSCLC = system: A549 NSCLC
NCI-H226 lung = system: NCI-H226 lung
SF-295 CNS = system: SF-295 CNS
UACC-62 melanoma = system: UACC-62 melanoma
NCI-H522 lung = system: NCI-H522 lung
SK-MEL-28 melanoma = system: SK-MEL-28 melanoma
NCI-H23 lung = system: NCI-H23 lung
PC-3 prostate = system: PC-3 prostate
ACHN renal = system: ACHN renal
SF-268 CNS = system: SF-268 CNS
SR leukemia = system: SR leukemia
EKVX NSCLC = system: EKVX NSCLC
LOX IMVI melanoma = system: LOX IMVI melanoma
OVCAR-8 ovarian = system: OVCAR-8 ovarian
RXF 393 renal = system: RXF 393 renal
CAKI-1 renal = system: CAKI-1 renal
OVCAR-5 ovarian = system: OVCAR-5 ovarian
SK-OV-3 ovarian = system: SK-OV-3 ovarian
K-562 leukemia = system: K-562 leukemia
NCI-H460 lung = system: NCI-H460 lung
KM12 colon = system: KM12 colon
DU-145 prostate = system: DU-145 prostate
HT29 colon = system: HT29 colon
M14 melanoma = system: M14 melanoma
HS 578T breast = system: HS 578T breast
HOP-92 NSCLC = system: HOP-92 NSCLC
SF-539 CNS = system: SF-539 CNS
U251 CNS = system: U251 CNS
HOP-62 NSCLC = system: HOP-62 NSCLC
CCRF-CEM leukemia = system: CCRF-CEM leukemia
MALME-3M melanoma = system: MALME-3M melanoma
MDA-MB-435 = system: MDA-MB-435
COLO 205 colon = system: COLO 205 colon
MOLT-4 leukemia = system: MOLT-4 leukemia
SNB-75 CNS = system: SNB-75 CNS
SN12C renal = system: SN12C renal
TK-10 renal = system: TK-10 renal
SK-MEL-2 melanoma = system: SK-MEL-2 melanoma
RPMI-8226 leukemia = system: RPMI-8226 leukemia
BT-549 breast = system: BT-549 breast
OVCAR-4 ovarian = system: OVCAR-4 ovarian
OVCAR-3 ovarian = system: OVCAR-3 ovarian
UO-31 renal = system: UO-31 renal
NCI/ADR-RES ovarian = system: NCI/ADR-RES ovarian
786-0 renal = system: 786-0 renal
T-47D breast = system: T-47D breast
IGROV1 ovarian = system: IGROV1 ovarian
SW-620 colon = system: SW-620 colon
MDA-MB-231 breast = system: MDA-MB-231 breast
HCT-15 colon = system: HCT-15 colon
SNB-19 CNS = system: SNB-19 CNS

Compound `COc1ccc(C(=S)N(C)NC(=O)CC(=O)NN(C)C(=S)c2ccc(OC)cc2)cc1` has a GI50 (HL-60(TB) leukemia) greater than 100 µM, a TGI (HL-60(TB) leukemia) greater than 100 µM and a GI50 (SK-MEL-5 melanoma) of 36.2 µM. The TGI (SK-MEL-5 melanoma) was greater than 100 µM, the GI50 (A549 NSCLC) was 24.5 µM and the TGI (A549 NSCLC) was greater than 100 µM. It also gave a GI50 (NCI-H226 lung) of 49.8 µM, a TGI (NCI-H226 lung) greater than 100 µM and a GI50 (SF-295 CNS) of 1.63 µM. It also gave a TGI (SF-295 CNS) of 39 µM, a GI50 (UACC-62 melanoma) of 37 µM and a TGI (UACC-62 melanoma) greater than 100 µM. For the same compound, the GI50 (NCI-H522 lung) was 45.9 µM, the TGI (NCI-H522 lung) was greater than 100 µM and the GI50 (SK-MEL-28 melanoma) was 42.6 µM. The TGI (SK-MEL-28 melanoma) was greater than 100 µM, the GI50 (NCI-H23 lung) was 46.6 µM and the TGI (NCI-H23 lung) was greater than 100 µM. It also gave a GI50 (PC-3 prostate) of 26.1 µM, a TGI (PC-3 prostate) greater than 100 µM and a GI50 (ACHN renal) of 50.7 µM. It also gave a TGI (ACHN renal) greater than 100 µM, a GI50 (SF-268 CNS) of 43.2 µM and a TGI (SF-268 CNS) greater than 100 µM. The GI50 (SR leukemia) was greater than 100 µM, the TGI (SR leukemia) was greater than 100 µM and the GI50 (EKVX NSCLC) was 32 µM. The TGI (EKVX NSCLC) was greater than 100 µM, the GI50 (LOX IMVI melanoma) was 28.9 µM and the TGI (LOX IMVI melanoma) was greater than 100 µM. It also gave a GI50 (OVCAR-8 ovarian) of 38.9 µM, a TGI (OVCAR-8 ovarian) greater than 100 µM and a GI50 (RXF 393 renal) of 40.4 µM. It also gave a TGI (RXF 393 renal) of 92.3 µM, a GI50 (CAKI-1 renal) of 31.8 µM and a TGI (CAKI-1 renal) greater than 100 µM. For the same compound, the GI50 (OVCAR-5 ovarian) was 76.3 µM, the TGI (OVCAR-5 ovarian) was greater than 100 µM and the GI50 (SK-OV-3 ovarian) was greater than 100 µM. For the same compound, the TGI (SK-OV-3 ovarian) was greater than 100 µM, the GI50 (K-562 leukemia) was 59.4 µM and the TGI (K-562 leukemia) was greater than 100 µM. It also gave a GI50 (NCI-H460 lung) of 18.1 µM, a TGI (NCI-H460 lung) greater than 100 µM and a GI50 (KM12 colon) of 62.7 µM. It also gave a TGI (KM12 colon) greater than 100 µM, a GI50 (DU-145 prostate) of 46.9 µM and a TGI (DU-145 prostate) greater than 100 µM. For the same compound, the GI50 (HT29 colon) was 39.1 µM, the TGI (HT29 colon) was greater than 100 µM and the GI50 (M14 melanoma) was 33.5 µM. It also gave a TGI (M14 melanoma) greater than 100 µM, a GI50 (HS 578T breast) of 24.4 µM and a TGI (HS 578T breast) of 82.6 µM. It also gave a GI50 (HOP-92 NSCLC) of 0.283 µM, a TGI (HOP-92 NSCLC) greater than 100 µM and a GI50 (SF-539 CNS) of 51.9 µM. It also gave a TGI (SF-539 CNS) greater than 100 µM, a GI50 (U251 CNS) of 45.8 µM and a TGI (U251 CNS) greater than 100 µM. The GI50 (HOP-62 NSCLC) was greater than 100 µM, the TGI (HOP-62 NSCLC) was greater than 100 µM and the GI50 (CCRF-CEM leukemia) was 23.4 µM. For the same compound, the TGI (CCRF-CEM leukemia) was greater than 100 µM, the GI50 (MALME-3M melanoma) was 52.3 µM and the TGI (MALME-3M melanoma) was greater than 100 µM. It also gave a GI50 (MDA-MB-435) of 59.9 µM, a TGI (MDA-MB-435) greater than 100 µM and a GI50 (COLO 205 colon) of 12.8 µM. The TGI (COLO 205 colon) was 70.8 µM, the GI50 (MOLT-4 leukemia) was greater than 100 µM and the TGI (MOLT-4 leukemia) was greater than 100 µM. For the same compound, the GI50 (SNB-75 CNS) was greater than 100 µM, the TGI (SNB-75 CNS) was greater than 100 µM and the GI50 (SN12C renal) was 98 µM. It also gave a TGI (SN12C renal) greater than 100 µM, a GI50 (TK-10 renal) of 67 µM and a TGI (TK-10 renal) greater than 100 µM. It also gave a GI50 (SK-MEL-2 melanoma) of 79.6 µM, a TGI (SK-MEL-2 melanoma) greater than 100 µM and a GI50 (RPMI-8226 leukemia) of 0.0119 µM. It also gave a TGI (RPMI-8226 leukemia) greater than 100 µM, a GI50 (BT-549 breast) of 50.3 µM and a TGI (BT-549 breast) greater than 100 µM. It also gave a GI50 (OVCAR-4 ovarian) of 31.7 µM, a TGI (OVCAR-4 ovarian) greater than 100 µM and a GI50 (OVCAR-3 ovarian) of 36.5 µM. The TGI (OVCAR-3 ovarian) was greater than 100 µM, the GI50 (UO-31 renal) was 24.9 µM and the TGI (UO-31 renal) was greater than 100 µM. It also gave a GI50 (NCI/ADR-RES ovarian) of 29.1 µM, a TGI (NCI/ADR-RES ovarian) greater than 100 µM and a GI50 (786-0 renal) of 58.5 µM. For the same compound, the TGI (786-0 renal) was greater than 100 µM, the GI50 (T-47D breast) was 58.6 µM and the TGI (T-47D breast) was greater than 100 µM. The GI50 (IGROV1 ovarian) was 54.4 µM, the TGI (IGROV1 ovarian) was greater than 100 µM and the GI50 (SW-620 colon) was 33.3 µM. The TGI (SW-620 colon) was greater than 100 µM, the GI50 (MDA-MB-231 breast) was greater than 100 µM and the TGI (MDA-MB-231 breast) was greater than 100 µM. It also gave a GI50 (HCT-15 colon) of 17.6 µM, a TGI (HCT-15 colon) greater than 100 µM and a GI50 (SNB-19 CNS) greater than 100 µM. The TGI (SNB-19 CNS) was greater than 100 µM.
